The source of these data is patent US11129825B2, “Polysubunit opioid prodrugs resistant to overdose and abuse” (Elysium Therapeutics, Inc., priority 2015, dated 2021).

One series has as its system opioid receptors. Particulars: after oral doses; cited from earlier work.
A further series deals with trypsin. In words: Inhibition of trypsin-catalyzed hydrolysis of Nα-Benzoyl-L-arginine 4-nitroanilide hydrochloride in vitro. The series is classed as biochemical. Particulars: pH 7.4, 37° C.; for Percent Nα-Benzoyl-L-arginine 4-nitroanilide hydrochloride remaining: trypsin 2,000 BAEE. As for the experimental part: This example describes in vitro experiments with a compound of the disclosure to provide a mechanism of overdose protection.
The effect of increasing concentrations of compounds 2 and 3 on the rate and extent of the trypsin-catalyzed hydrolysis of a commercially available trypsin substrate Nα-Benzoyl-L-arginine 4-nitroanilide hydrochloride was evaluated in the presence of trypsin (2,000 BAEE activity) in a pH 7.4 phosphate buffer at 37° C. in vitro. Both buffer alone (i.e. no trypsin) and trypsin (i.e. no compound 2 or 3) controls were run contemporaneously.

A short description of series [1]: Pharmacokinetics of delivered hydrocodone after increasing oral doses in dogs. The series is classed as in vivo. As for the experimental part: The effect of increasing oral doses of compounds 2 and 3 on the pharmacokinetics of delivered hydrocodone (i.e. measured plasma hydrocodone concentrations vs. time) was evaluated in dogs. Specific pharmacokinetics parameters of the delivered opioid were calculated (e.g. Cmax, Tmax, AUC) and are presented below in the Table below.

For series [2] the following is noted: oral administration; cited from earlier work.
For series [3] the following is noted: hydrochloride salt; cited from earlier work.

On to `C[C@H]1[C@H]2Cc3ccc(O)cc3[C@]1(C)CCN2CC1CC1` [cyclazocine], for which the Duration of action in the series on opioid receptors was approximately 24 h.

Take `COc1ccc2c3c1O[C@H]1C(OC(=O)N4CCC(C(=O)NCCCC[C@H](NC(=O)OCc5ccccc5)C(=O)NCCOc5ccc(C(=O)Oc6ccc7cc(C(=N)N)ccc7c6)cc5)CC4CNC(=O)[C@@H](CCCNC(=N)N)NC(=O)CNC(C)=O)=CC[C@H]4[C@@H](C2)N(C)CC[C@]314` (stereo partly shown) [Compound 2]: the “Trypsin inhibition with increasing compound concentration” value in the series on trypsin (1 uM to 1 mM, result in words) is “progressively inhibit trypsin in a concentration dependent manner”. Also, the “Percent Nα-Benzoyl-L-arginine 4-nitroanilide hydrochloride remaining” value in the series on trypsin (compound 1 uM, 2 min) worked out at 100%; with trypsin (compound 1 uM, 13 min) it was 39%; with trypsin (compound 1 uM, 24 min) it was 0%; in the series on trypsin (compound 1 uM, 80 min) it was 0%; in the series with trypsin (compound 1 uM, 102 min) it was 0%; in the series with trypsin (compound 1 uM, 119 min), 0%. The “Percent Nα-Benzoyl-L-arginine 4-nitroanilide hydrochloride remaining” value amounted to 0% in the series on trypsin (compound 1 uM, 234 min); 100% in the series with trypsin (compound 10 uM, 2 min); 98% with trypsin (compound 10 uM, 13 min); 96% in the series on trypsin (compound 10 uM, 24 min); 94% in the series on trypsin (compound 10 uM, 80 min); 93% with trypsin (compound 10 uM, 102 min). The “Percent Nα-Benzoyl-L-arginine 4-nitroanilide hydrochloride remaining” value in the series on trypsin (compound 10 uM, 119 min) turned out to be 94%; in the series with trypsin (compound 10 uM, 234 min), 87%; in the series on trypsin (compound 100 uM, 2 min) it was 100%; in the series with trypsin (compound 100 uM, 13 min) it was 98%; in the series on trypsin (compound 100 uM, 24 min), 100%; in the series on trypsin (compound 100 uM, 80 min), 99%. The “Percent Nα-Benzoyl-L-arginine 4-nitroanilide hydrochloride remaining” value in the series on trypsin (compound 100 uM, 102 min) is given as 99%; in the series on trypsin (compound 100 uM, 119 min), 99%; in the series on trypsin (compound 100 uM, 234 min), 99%; with trypsin (compound 1 mM, 2 min), 100%; in the series with trypsin (compound 1 mM, 13 min), 100%; in the series on trypsin (compound 1 mM, 24 min) it was 99%. In addition, the “Percent Nα-Benzoyl-L-arginine 4-nitroanilide hydrochloride remaining” value with trypsin (compound 1 mM, 80 min) stood at 100%; with trypsin (compound 1 mM, 102 min), 100%; in the series with trypsin (compound 1 mM, 119 min) it was 100%; in the series on trypsin (compound 1 mM, 234 min), 100%. Also, the “Release of hydrocodone in vivo with increasing oral doses” value in series [1] (increasing oral doses, dogs, result in words) is listed as “progressively attenuate the release of hydrocodone in vivo”. Moreover, the “AUC0-8 h of hydrocodone in dog plasma” value amounted to 7.79 ng·h/mL in series [1] (oral dose 1.66 umol/kg), 27 ng·h/mL in series [1] (oral dose 5 umol/kg), 37.68 ng·h/mL in series [1] (oral dose 10 umol/kg) and 64.38 ng·h/mL in series [1] (oral dose 35 umol/kg). For the same compound, the “Maximum concentration (Cmax) of hydrocodone in dog plasma” value came out at 2.87 ng/mL HC in series [1] (oral dose 1.66 umol/kg), 6.49 ng/mL HC in series [1] (oral dose 5 umol/kg), 8.37 ng/mL HC in series [1] (oral dose 10 umol/kg) and 11.87 ng/mL HC in series [1] (oral dose 35 umol/kg). Moreover, the “Time of maximum concentration (Tmax) of hydrocodone in dog plasma” value is 0.96 h in series [1] (oral dose 1.66 umol/kg), 1.38 h in series [1] (oral dose 5 umol/kg), 2.08 h in series [1] (oral dose 10 umol/kg) and 2.13 h in series [1] (oral dose 35 umol/kg).

For `O=C1CC[C@@]2(O)[C@H]3Cc4ccc(O)c5c4[C@@]2(CCN3CC2CC2)[C@H]1O5` [naltrexone], the Duration of action in the series on opioid receptors was approximately 24 h. The Oral bioavailability in series [2] is on record as 5-40%. In addition, in series [3], the Solubility in water entry is listed as “about 100 mg/mL”.
